{"source": "patent US20040077625A1", "about": "“Novel 1,4-benzothiazepine and 1,5-benzothiazepine compounds as inhibitors of apical sodium codependent bile acid transport abd taurocholate uptake” (priority 2001, published 2004)", "biological_target": "T1, human IBAT (Homo sapiens, UniProt Q12908)", "T1 construct": "expressed in transfected cells; host or cells: Baby hamster kidney (BHK) cells, H14 cells", "T1 sequence (Q12908 1-348)": "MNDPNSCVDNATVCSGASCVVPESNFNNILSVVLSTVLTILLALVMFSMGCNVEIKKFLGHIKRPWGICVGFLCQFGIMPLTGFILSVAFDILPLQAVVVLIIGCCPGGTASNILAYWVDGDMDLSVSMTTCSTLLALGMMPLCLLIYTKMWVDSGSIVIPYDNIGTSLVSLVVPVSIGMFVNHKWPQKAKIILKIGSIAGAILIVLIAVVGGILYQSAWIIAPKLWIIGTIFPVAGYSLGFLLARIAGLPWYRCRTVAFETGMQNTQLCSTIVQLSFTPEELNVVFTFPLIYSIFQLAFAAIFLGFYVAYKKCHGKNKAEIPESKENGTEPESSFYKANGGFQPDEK", "assay": "In vitro assay of compounds that inhibit IBAT-mediated uptake of [14C]-taurocholate (TC) in H14 cells", "assay_type": "cell-based", "settings": "Table 8, 1, 4 and 1, 5 benzothiazipines", "description": "In Vitro Assay of Compounds that Inhibit IBAT-Mediated Uptake of [^14C]-Taurocholate (TC) in H14Cells\nBaby hamster kidney cells (BHK) transfected with the cDNA of human IBAT (H14 cells) are seeded in 96 well Top-Count tissue culture plates at 60,000 cells/well for assays run within 24 hours of seeding, 30,000 cells/well for assays run within 48 hours, and 10,000 cells/well for assays run within 72 hours.\nOn the day of assay, the cell monolayer is gently washed once with […] (Dulbecco's Modified Eagle's medium with 4.5 g/L glucose plus 0.2% (w/v) fatty acid free bovine serum albumin ((FAF)BSA). To each well […] of a two-fold concentrate of test compound in assay buffer is added along with […] of […] [^14C]-taurocholate in assay buffer (final concentration of […] [^14C]-taurocholate). The cell culture plates are incubated 2 hours at 37° C. prior to gently washing each well twice with […] 4° C. Dulbecco's phosphate-buffered saline (PBS) containing 0.2% (w/v) (FAF)BSA. The wells are then gently washed once with […] 4° C. PBS without (FAF)BSA. To each […] of liquid, scintillation counting fluid is added. The plates are heat sealed and shaken for 30 minutes at room temperature prior to measuring the amount of radioactivity in each well on a Packard Top-Count instrument.", "data": [{"smiles": "CCCCC1(CCCC)CS(=O)(=O)c2ccc(N(C)C)cc2[C@@H](c2ccc(OC)cc2)N1", "note": "(racemic) [Compound 2, 3.3-Dibutyl-2.3,4,5-tetrahydro-7-dimethylamino-5-(4′-methoxyphenyl)-1,4-benzothiazepine 1,1-dioxide]", "values": [{"measurement": "IC50", "value": 497, "unit": "nM"}]}]}
